Among the data in PubChem BioAssay AID256 (DTP/NCI, 2004) are T/C values, retold here.

This assay has as its system CD2F1 mice, L1210 leukemia ip, survival T/C. Briefly: NCI In Vivo Anticancer Drug Screen. Data for tumor model L1210 Leukemia (intraperitoneal) in CD2F1 (CDF1) mice. To be noted: higher = longer survival. In outline: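 Antitumor effect is scored in animals hosting a serially transplanted tumor. Values compare compound-dosed animals against vehicle-only controls as a simple quotient.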

Where [1] appears, read: endpoint: mean survival time, dose: 100.0 mg/kg/injection, schedule: Q01DX009 (ip), vehicle: saline with Tween-80.
The mark [2] stands for this setting: endpoint: mean survival time, dose: 100.0 mg/kg/injection, schedule: Q04DX003 (ip), vehicle: saline with Tween-80.
Where [3] appears, read: endpoint: mean survival time, dose: 200.0 mg/kg/injection, schedule: Q01DX009 (ip), vehicle: saline with Tween-80.
[4] abbreviates: endpoint: mean survival time, dose: 200.0 mg/kg/injection, schedule: Q04DX003 (ip), vehicle: saline with Tween-80.

Structures are written as SMILES. Several values for one entry are separate records, joined by “and”; a condition that tells them apart may be missing. Identical values can stand only once. Toxic doses and inconclusive results are not listed.

`COC1OC(CO)C(O)C1n1cnc2c(=O)[nH]c(N)nc21` (stereo not drawn): the T/C was 97 % of control (endpoint: mean survival time, dose: 50.0 mg/kg/injection, schedule: Q01DX001 (ip), vehicle: saline with Tween-80); 95 % of control (endpoint: mean survival time, dose: 100.0 mg/kg/injection, schedule: Q01DX001 (ip), vehicle: saline with Tween-80); 97 % of control (endpoint: mean survival time, dose: 200.0 mg/kg/injection, schedule: Q01DX001 (ip), vehicle: saline with Tween-80).

Regarding `CCn1cnc2c(=S)nc[nH]c21`, the T/C runs as follows: (endpoint: mean survival time, dose: 9.4 mg/kg/injection, schedule: Q03HX024 (ip), vehicle: saline) 107 % of control; (endpoint: mean survival time, dose: 15.0 mg/kg/injection, schedule: Q01DX009 (ip), vehicle: saline) 104 % of control; (endpoint: mean survival time, dose: 15.0 mg/kg/injection, schedule: Q03HX008 (ip), vehicle: saline) 121 % of control; (endpoint: mean survival time, dose: 18.8 mg/kg/injection, schedule: Q03HX016 (ip), vehicle: saline) 101 % of control; (endpoint: mean survival time, dose: 30.0 mg/kg/injection, schedule: Q01DX009 (ip), vehicle: saline) 113 % of control; (endpoint: mean survival time, dose: 37.5 mg/kg/injection, schedule: Q03HX024 (ip), vehicle: saline) 156 % of control. In addition, the T/C runs as follows: (endpoint: mean survival time, dose: 56.3 mg/kg/injection, schedule: Q03HX024 (ip), vehicle: saline) 163 % of control; (endpoint: mean survival time, dose: 60.0 mg/kg/injection, schedule: Q03HX008 (ip), vehicle: saline) 161 % of control; (endpoint: mean survival time, dose: 75.0 mg/kg/injection, schedule: Q03DX003 (ip), vehicle: saline) 101 % of control; (endpoint: mean survival time, dose: 75.0 mg/kg/injection, schedule: Q03HX016 (ip), vehicle: saline) 161 % of control; (endpoint: mean survival time, dose: 75.0 mg/kg/injection, schedule: Q04DX003 (ip), vehicle: saline) 108 % of control and 109 % of control; (endpoint: mean survival time, dose: 120.0 mg/kg/injection, schedule: Q01DX009 (ip), vehicle: saline) 87 % of control. Besides, the T/C runs as follows: (endpoint: mean survival time, dose: 150.0 mg/kg/injection, schedule: Q01DX001 (ip), vehicle: saline) 115 % of control; (endpoint: mean survival time, dose: 150.0 mg/kg/injection, schedule: Q01DX007 (ip), vehicle: saline) 96 % of control; (endpoint: mean survival time, dose: 150.0 mg/kg/injection, schedule: Q01DX009 (ip), vehicle: saline) 106 % of control; (endpoint: mean survival time, dose: 150.0 mg/kg/injection, schedule: Q03DX003 (ip), vehicle: saline) 112 % of control; (endpoint: mean survival time, dose: 300.0 mg/kg/injection, schedule: Q04DX003 (ip), vehicle: saline) 112 % of control; (endpoint: mean survival time, dose: 300.0 mg/kg/injection, schedule: Q08DX002 (ip), vehicle: saline) 151 % of control. The T/C reads like this: (endpoint: mean survival time, dose: 600.0 mg/kg/injection, schedule: Q08DX002 (ip), vehicle: saline) 105 % of control; (endpoint: median survival time, dose: 12.5 mg/kg/injection, schedule: Q01DX009 (ip), vehicle: saline with Tween-80) 118 % of control; (endpoint: median survival time, dose: 25.0 mg/kg/injection, schedule: Q01DX009 (ip), vehicle: saline with Tween-80) 118 % of control; (endpoint: median survival time, dose: 31.3 mg/kg/injection, schedule: Q01DX009 (ip), vehicle: saline) 100 % of control and 111 % of control; (endpoint: median survival time, dose: 62.5 mg/kg/injection, schedule: Q01DX009 (ip), vehicle: saline) 188 % of control; (endpoint: median survival time, dose: 100.0 mg/kg/injection, schedule: Q01DX009 (ip), vehicle: saline with Tween-80) 183 % of control. The T/C (endpoint: median survival time, dose: 125.0 mg/kg/injection, schedule: Q01DX009 (ip), vehicle: saline) was 116 % of control and the T/C (endpoint: median survival time, dose: 200.0 mg/kg/injection, schedule: Q01DX009 (ip), vehicle: saline with Tween-80) is 118 % of control.

For the compound `O=C1C(Br)CCC1C(O)(C(F)(F)F)C(F)(F)F` (stereo not drawn), the T/C by setting is: (endpoint: mean survival time, dose: 50.0 mg/kg/injection, schedule: Q01DX009 (ip), vehicle: saline with Tween-80) 98 % of control; under setting [1], 102 % of control; under setting [2], 92 % of control; under setting [3], 104 % of control; under setting [4], 91 % of control.

In the case of `O=[N+]([O-])c1ccc(C2=CSc3ccccc3N2)cc1`, the T/C is, setting by setting: (endpoint: mean survival time, dose: 100.0 mg/kg/injection, schedule: Q04DX002 (ip), vehicle: saline with Tween-80) 104 % of control; (endpoint: mean survival time, dose: 200.0 mg/kg/injection, schedule: Q04DX002 (ip), vehicle: saline with Tween-80) 108 % of control; (endpoint: mean survival time, dose: 400.0 mg/kg/injection, schedule: Q04DX002 (ip), vehicle: saline with Tween-80) 104 % of control.

Take `CC1(C)CC(NC2=NCCO2)CC(C)(C)N1`: the T/C is, setting by setting: (endpoint: mean survival time, dose: 6.25 mg/kg/injection, schedule: Q01DX001 (ip), vehicle: saline) 94 % of control; (endpoint: mean survival time, dose: 6.25 mg/kg/injection, schedule: Q01DX009 (ip), vehicle: saline) 101 % of control; (endpoint: mean survival time, dose: 12.5 mg/kg/injection, schedule: Q01DX001 (ip), vehicle: saline) 97 % of control; (endpoint: mean survival time, dose: 12.5 mg/kg/injection, schedule: Q01DX009 (ip), vehicle: saline) 98 % of control; (endpoint: mean survival time, dose: 25.0 mg/kg/injection, schedule: Q01DX001 (ip), vehicle: saline) 90 % of control; (endpoint: mean survival time, dose: 25.0 mg/kg/injection, schedule: Q01DX009 (ip), vehicle: saline) 96 % of control.

Take `C=CCCCCCCCCC(=O)N(CC#N)CC(C)C`: the T/C under setting [1] is 104 % of control; the T/C under setting [2] is 96 % of control; the T/C under setting [3] is 96 % of control; the T/C under setting [4] is 100 % of control; the T/C (endpoint: mean survival time, dose: 400.0 mg/kg/injection, schedule: Q04DX003 (ip), vehicle: saline with Tween-80) is 94 % of control.

Turning to `CCC1CN2C(=N1)c1ccccc1-c1cc(Cl)ccc12` (stereo not drawn), the T/C is, setting by setting: (endpoint: mean survival time, dose: 10.0 mg/kg/injection, schedule: Q04DX003 (ip), vehicle: Klucel (hydroxypropylcellulose) (HPC)) 98 % of control; (endpoint: mean survival time, dose: 20.0 mg/kg/injection, schedule: Q04DX003 (ip), vehicle: Klucel (hydroxypropylcellulose) (HPC)) 103 % of control.

For the compound `CCCCCC[Si]`, the T/C runs as follows: (endpoint: mean survival time, dose: 75.0 mg/kg/injection, schedule: Q01DX009 (ip), vehicle: saline with Tween-80) 94 % of control; (endpoint: mean survival time, dose: 150.0 mg/kg/injection, schedule: Q01DX009 (ip), vehicle: saline with Tween-80) 94 % of control; (endpoint: mean survival time, dose: 300.0 mg/kg/injection, schedule: Q01DX009 (ip), vehicle: saline with Tween-80) 98 % of control.
